Experimental findings from US20110098296A1, “Thiazole And Oxazole Kinase Inhibitors” (priority 2007, published 2011) are described below.

The structures appear in SMILES notation. A value given as a limit tells only on which side of the number the result lay.

This assay addresses T1, ErbB2 (Homo sapiens, UniProt P04626).
T1 construct: made in house; host or cells: baculovirus expression system
In words: ErbB-2 substrate phosphorylation assay (HTRF). The format is biochemical. The note with it: Method (A): Enzyme Mix incubated with compound at 20° C. for 1 hr, reaction started by adding Substrate Mix. The gist of the method:
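Baculovirus-expressed kinase (0.8 nM EGFR or 10 nM ErbB2 in enzyme mix) with Peptide C 0.8 μM and ATP 20 μM (substrate-mix levels), MOPS pH 7.5, MnCl2; 90 min, 20 °C, HTRF anti-phosphotyrosine. Method A adds 1 h enzyme–compound preincubation; B none. pIC50, final compound 0.00027–47.6 μM.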
On the technique in general: TR-FRET usually uses a lanthanide donor and a delayed reading to cut background.

T1 sequence (P04626 23-1255): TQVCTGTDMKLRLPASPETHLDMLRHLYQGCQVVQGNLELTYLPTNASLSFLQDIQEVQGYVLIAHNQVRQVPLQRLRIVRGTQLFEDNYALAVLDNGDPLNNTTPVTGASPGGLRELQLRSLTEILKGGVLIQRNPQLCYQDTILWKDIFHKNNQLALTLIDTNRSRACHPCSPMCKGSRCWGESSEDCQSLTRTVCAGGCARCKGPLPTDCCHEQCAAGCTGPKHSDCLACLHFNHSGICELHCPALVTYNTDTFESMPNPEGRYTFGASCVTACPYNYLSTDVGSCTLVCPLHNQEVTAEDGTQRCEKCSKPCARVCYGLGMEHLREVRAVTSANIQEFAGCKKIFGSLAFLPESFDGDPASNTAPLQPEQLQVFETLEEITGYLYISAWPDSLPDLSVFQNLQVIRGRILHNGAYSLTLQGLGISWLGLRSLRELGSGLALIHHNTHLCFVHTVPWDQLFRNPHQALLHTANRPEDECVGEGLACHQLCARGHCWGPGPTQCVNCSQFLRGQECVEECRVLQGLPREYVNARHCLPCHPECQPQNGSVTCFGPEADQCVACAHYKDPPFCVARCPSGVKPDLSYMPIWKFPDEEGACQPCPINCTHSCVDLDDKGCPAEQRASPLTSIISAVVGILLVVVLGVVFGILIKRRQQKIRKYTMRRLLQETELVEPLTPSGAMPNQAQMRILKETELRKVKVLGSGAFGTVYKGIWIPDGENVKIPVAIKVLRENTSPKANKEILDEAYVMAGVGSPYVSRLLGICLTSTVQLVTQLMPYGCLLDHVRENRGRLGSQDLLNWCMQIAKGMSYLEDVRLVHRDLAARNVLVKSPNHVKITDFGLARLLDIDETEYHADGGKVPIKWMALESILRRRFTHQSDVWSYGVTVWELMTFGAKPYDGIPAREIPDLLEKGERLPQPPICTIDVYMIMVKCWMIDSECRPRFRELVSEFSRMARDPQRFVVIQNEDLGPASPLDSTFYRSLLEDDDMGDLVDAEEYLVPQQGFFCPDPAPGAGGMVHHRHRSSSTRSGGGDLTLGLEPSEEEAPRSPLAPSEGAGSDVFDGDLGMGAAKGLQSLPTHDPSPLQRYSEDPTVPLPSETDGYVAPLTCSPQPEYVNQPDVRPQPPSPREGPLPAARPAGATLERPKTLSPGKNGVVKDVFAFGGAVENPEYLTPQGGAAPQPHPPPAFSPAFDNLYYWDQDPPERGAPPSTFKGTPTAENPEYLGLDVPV

As usually defined, the IC50 is the point on the concentration scale where inhibition reaches its midpoint. As to `COc1cc(Nc2nccc(-c3sc(N)nc3-c3cccc(NC(=O)c4c(F)cccc4F)c3)n2)cc(OC)c1OC` [Example 16, N-[3-(2-Amino-5-{2-[(3,4,5-trimethoxyphenyl)amino]pyrimidiN-4-yl}-1,3-thiazol-4-yl)phenyl]-2,6-difluorobenzamide], the IC50 is under 100 nM.

Consider `COc1ccc(Nc2nccc(-c3sc(N)nc3-c3cccc(NC(=O)c4c(F)cccc4F)c3)n2)cc1N1CCNCC1` [Example 18, N-[3-(2-Amino-5-{2-[(4-methoxy-3-piperaziN-1-ylphenyl)amino]pyrimidiN-4-yl}-1,3-thiazol-4-yl)phenyl]-2,6-difluorobenzamide], for which the IC50 was under 100 nM.

Take `Cc1cc(-c2sc(N)nc2-c2cccc(NC(=O)c3c(F)cccc3F)c2)nc(Nc2cccc(F)c2)n1` [Example 48, N-[3-(2-Amino-5-{2-[(3-fluorophenyl)amino]-6-methyl-4-pyrimidinyl}-1,3-thiazol-4-yl)phenyl]-2,6-difluorobenzamide]: the 50% inhibitory concentration (IC50) was over 1000 nM.

`CCNc1nc(-c2cccc(NC(=O)C3CC3)c2)c(-c2ccnc(Nc3ccc(OCCN4CCCC4)c(Cl)c3)n2)s1` [Example 63, N-{3-[5-{2-[(3-Chloro-4-{[2-(1-pyrrolidinyl)ethyl]oxy}phenyl)amino]-4-pyrimidinyl}-2-(ethylamino)-1,3-thiazol-4-yl]phenyl}cyclopropanecarboxamide]: the IC50 was under 100 nM.

`Nc1nc(-c2cccc(C(=O)Nc3c(F)cccc3F)c2)c(-c2ccnc(Nc3cccc(CN4CCCC4)c3)n2)s1` [Example 77, 3-[2-Amino-5-(2-{[3-(1-pyrrolidinylmethyl)phenyl]amino}-4-pyrimidinyl)-1,3-thiazol-4-yl]-N-(2,6-difluorophenyl)benzamide]: the IC50 is under 100 nM.

For the compound `Cc1nc(-c2cccc(NC(=O)c3c(F)cccc3F)c2)c(-c2ccnc(Nc3ccc(OCCN(C)C)c(Cl)c3)n2)s1` [Example 103, N-[3-(5-{2-[(3-Chloro-4-{[2-(dimethylamino)ethyl]oxy}phenyl)amino]-4-pyrimidinyl}-2-methyl-1,3-thiazol-4-yl)phenyl]-2,6-difluorobenzamide], the IC50 is under 100 nM.

In the case of `Cc1nc(-c2cccc(NC(=O)c3c(F)cccc3F)c2)c(-c2ccnc(Nc3ccc(OC4CCN(C(=O)OCc5ccccc5)CC4)c(F)c3)n2)s1` [Example 106], the IC50 is under 100 nM.

For the compound `CCc1nc(-c2cccc(NC(=O)c3c(F)cccc3F)c2)c(-c2ccnc(Nc3cccc(CN4CCCC4)c3)n2)s1` [Example 115, N-{3-[2-Ethyl-5-(2-{[3-(1-pyrrolidinylmethyl)phenyl]amino}-4-pyrimidinyl)-1,3-thiazol-4-yl]phenyl}-2,6-difluorobenzamide], the IC50 is under 100 nM.

On to `Cc1nc(-c2cccc(NC(=O)c3cc(F)ccc3F)c2)c(-c2ccnc(Nc3ccc(OCCN(C)C)c(Cl)c3)n2)o1` [Example 142], for which the IC50 is under 100 nM.
